Assay results taken from patent US11634425B2, “Pharmaceutical compounds” (priority 2019, dated 2023).
Where two headings read alike, the source gives them in different places.

Columns and labels:
Cell cytotoxicity (CC50) = assay type: cell-based; conditions: human; mean of at least two experiments
Outline: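 Values are means of ≥2 independent runs, rounded to whole units, from 4-parameter variable-slope curve fits. Toxicity measured in Hep-G2 cells run alongside RSV plaque-reduction assays.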

in vitro = in vitro ADME; conditions: microsomes, pH 7.4, 1 μM compound, 0.5 mg/mL protein, read-out: Liver Microsomal Stability t1/2
Protocol: Compounds were subjected to the following assays to investigate liver microsomal stability and hepatocyte stability.
Microsomal Incubation: Experimental Procedure
Pooled liver microsomes were purchased from a reputable commercial supplier and stored at −80° C. prior to use. Microsomes (final protein concentration 0.5 mg/mL), 0.1 M phosphate buffer pH 7.4 and test compound (final substrate concentration 1 μM; final DMSO concentration 0.25%) were pre-incubated at 37° C. prior to the addition of NADPH (final concentration 1 mM) to initiate the reaction. The final incubation volume was 50 μL. A control incubation was included for each compound tested where 0.1 M phosphate buffer pH 7.4 was added instead of NADPH (minus NADPH). Two control compounds were included with each species. All incubations were performed singularly for each test compound. Each compound was incubated for 0, 5, 15, 30 and 45 min. The control (minus NADPH) was incubated for 45 min only. The reactions were stopped by transferring incubate into acetonitrile at the appropriate time points, in a 1:3 ratio. The termination plates are centrifuged at 3,000 rpm for 20 min at 4° C. to precipitate the protein. Following protein precipitation, the sample supernatants were combined in cassettes of up to 4 compounds, internal standard added, and samples analysed by LC-MS/MS. From a plot of ln peak area ratio (compound peak area/internal standard peak area) against time, the gradient of the line was determined. Subsequently, half-life (t1/2) and intrinsic clearance (CLint) were calculated.

RSV A2 = test: RSV plaque reduction assay; assay type: cell-based, respiratory syncytial virus (RSV); conditions: human respiratory syncytial virus, HepG2, Hep-G2 cells, mean of at least two experiments
Outline: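 EC50 is the 50% reduction in immunostained plaque count versus virus-control wells, interpolated from variable-slope 4-parameter fits and averaged over at least two runs. Hep-G2 cells were infected with 100 PFU/well RSV A2 premixed with compound, with the inoculum removed after 2 h. Incubation continued at 37 °C for 2 days under a CMC overlay with compound.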

## COc1ccc2nc(-c3ccccc3)c(C(=O)N[C@H]3N=C(c4ccccc4)c4cccc(F)c4NC3=O)n2n1 [Example 113, N-[(3S)-9-fluoro-2-oxo-5-phenyl-1,3-dihydro-1,4-benzodiazepin-3-yl]-6-methoxy-2-phenylimidazo[1,2-b]pyridazine-3-carboxamide]
Cell cytotoxicity (CC50)
  CC50: > 25000 nM
In vitro; dog
  half-life at 1 μM: 4.02 h
In vitro; human
  half-life at 1 μM: 8.63 h
In vitro; rat
  half-life at 1 μM: 1.46 h
RSV A2
  EC50: 41 nM

## Cc1cncc(-c2nn3cccnc3c2C(=O)N[C@H]2N=C(c3ccccc3)c3cccc(F)c3NC2=O)c1 [Example 64, N-[(3S)-9-fluoro-2-oxo-5-phenyl-1,3-dihydro-1,4-benzodiazepin-3-yl]-2-(5-methylpyridin-3-yl)pyrazolo[1,5-a]pyrimidine-3-carboxamide]
Cell cytotoxicity (CC50)
  CC50: > 18800 nM
In vitro; dog
  half-life at 1 μM: 3.58 h
In vitro; human
  half-life at 1 μM: 24.2 h
In vitro; rat
  half-life at 1 μM: 1.7 h
RSV A2
  EC50: 100 nM

## Cc1ccn2nc(-c3ccc(F)cc3F)c(C(=O)N[C@H]3N=C(c4ccccc4)c4cccc(F)c4NC3=O)c2n1 [Example 36, 2-(2,4-Difluorophenyl)-N-[(3S)-9-fluoro-2-oxo-5-phenyl-1,3-dihydro-1,4-benzodiazepin-3-yl]-5-methylpyrazolo[1,5-a]pyrimidine-3-carboxamide]
Cell cytotoxicity (CC50)
  CC50: > 25000 nM
In vitro; dog
  half-life at 1 μM: 3.7 h
In vitro; human
  half-life at 1 μM: > 2.33 h
In vitro; rat
  half-life at 1 μM: 0.557 h
RSV A2
  EC50: 27 nM

## O=C(N[C@H]1N=C(c2ccccc2)c2cccc(F)c2NC1=O)c1c(-c2ccc(C3CC3)nc2)nn2cccnc12 [Example 30, 2-(6-Cyclopropylpyridin-3-yl)-N-[(3S)-9-fluoro-2-oxo-5-phenyl-1,3-dihydro-1,4-benzodiazepin-3-yl]pyrazolo[1,5-a]pyrimidine-3-carboxamide]
Cell cytotoxicity (CC50)
  CC50: > 25000 nM
In vitro; dog
  half-life at 1 μM: 4.88 h
In vitro; human
  half-life at 1 μM: 3.02 h
In vitro; rat
  half-life at 1 μM: 4.43 h
RSV A2
  EC50: 62 nM

## O=C(N[C@H]1N=C(c2ccccc2)c2ccccc2NC1=O)c1c(-c2ccc(F)cc2F)nc2cccnn12 [Example 88, 2-(2,4-Difluorophenyl)-N-[(3S)-2-oxo-5-phenyl-1,3-dihydro-1,4-benzodiazepin-3-yl]imidazo[1,2-b]pyridazine-3-carboxamide]
Cell cytotoxicity (CC50)
  CC50: > 25000 nM
In vitro; dog
  half-life at 1 μM: 1.27 h
In vitro; human
  half-life at 1 μM: > 2.33 h
In vitro; rat
  half-life at 1 μM: 3.37 h
RSV A2
  EC50: 20 nM

## Cc1ccc2nc(-c3cccnc3)c(C(=O)N[C@H]3N=C(c4ccccc4)c4cccc(F)c4NC3=O)n2n1 [Example 96, N-[(3S)-9-fluoro-2-oxo-5-phenyl-1,3-dihydro-1,4-benzodiazepin-3-yl]-6-methyl-2-pyridin-3-ylimidazo[1,2-b]pyridazine-3-carboxamide]
Cell cytotoxicity (CC50)
  CC50: > 25000 nM
In vitro; dog
  half-life at 1 μM: 3.78 h
In vitro; human
  half-life at 1 μM: 42.8 h
In vitro; rat
  half-life at 1 μM: 0.468 h
RSV A2
  EC50: 91 nM

## CCc1ccc(-c2nn3cccnc3c2C(=O)N[C@H]2N=C(c3ccccc3)c3ccccc3NC2=O)cn1 [Example 54, 2-(6-Ethylpyridin-3-yl)-N-[(3S)-2-oxo-5-phenyl-1,3-dihydro-1,4-benzodiazepin-3-yl]pyrazolo[1,5-a]pyrimidine-3-carboxamide]
Cell cytotoxicity (CC50)
  CC50: > 25000 nM
In vitro; dog
  half-life at 1 μM: 1.32 h
In vitro; human
  half-life at 1 μM: 2.92 h
In vitro; rat
  half-life at 1 μM: 1.28 h
RSV A2
  EC50: 151 nM

## O=C(N[C@H]1N=C(c2ccccc2)c2ccccc2NC1=O)c1c(-c2ccc(C3CC3)nc2)nn2cccnc12 [Example 29, 2-(6-Cyclopropylpyridin-3-yl)-N-[(3S)-2-oxo-5-phenyl-1,3-dihydro-1,4-benzodiazepin-3-yl]pyrazolo[1,5-a]pyrimidine-3-carboxamide]
Cell cytotoxicity (CC50)
  CC50: > 25000 nM
In vitro; dog
  half-life at 1 μM: 1.23 h
In vitro; human
  half-life at 1 μM: 5.22 h
In vitro; rat
  half-life at 1 μM: 15.2 h
RSV A2
  EC50: 72 nM

## CN1C[C@H]2C[C@@H]1CN2c1ccc2nc(-c3ccccc3)c(C(=O)N[C@H]3N=C(c4ccccc4)c4cccc(F)c4NC3=O)n2n1 [Example 81, N-[(3S)-9-fluoro-2-oxo-5-phenyl-1,3-dihydro-1,4-benzodiazepin-3-yl]-6-[(1R,4R)-5-methyl-2,5-diazabicyclo[2.2.1]heptan-2-yl]-2-phenylimidazo[1,2-b]pyridazine-3-carboxamide]
Cell cytotoxicity (CC50)
  CC50: 8150 nM
In vitro; dog
  half-life at 1 μM: 1.88 h
In vitro; human
  half-life at 1 μM: 0.488 h
In vitro; rat
  half-life at 1 μM: 1.49 h
RSV A2
  EC50: 114 nM

## CCNc1ccc2nc(-c3ccccc3F)c(C(=O)N[C@H]3N=C(c4ccccc4)c4cccc(F)c4NC3=O)n2n1 [Example 106, 6-(Ethylamino)-N-[(3S)-9-fluoro-2-oxo-5-phenyl-1,3-dihydro-1,4-benzodiazepin-3-yl]-2-(2-fluorophenyl)imidazo[1,2-b]pyridazine-3-carboxamide]
Cell cytotoxicity (CC50)
  CC50: > 25000 nM
In vitro; dog
  half-life at 1 μM: 4.8 h
In vitro; human
  half-life at 1 μM: 0.792 h
In vitro; rat
  half-life at 1 μM: 1.46 h
RSV A2
  EC50: 66 nM

## CNc1ccc(-c2nn3cccnc3c2C(=O)N[C@H]2N=C(c3ccccc3)c3ccccc3NC2=O)cc1 [Example 1, 2-[4-(Methylamino)phenyl]-N-[(3S)-2-oxo-5-phenyl-1,3-dihydro-1,4-benzodiazepin-3-yl]pyrazolo[1,5-a]pyrimidine-3-carboxamide]
Cell cytotoxicity (CC50)
  CC50: > 25000 nM
In vitro; dog
  half-life at 1 μM: 1.25 h
In vitro; human
  half-life at 1 μM: 1.22 h
In vitro; rat
  half-life at 1 μM: 0.678 h
RSV A2
  EC50: 35 nM

## O=C(N[C@H]1N=C(c2ccccc2)c2cccc(F)c2NC1=O)c1c(-c2ccc(F)cc2F)nn2cccnc12 [Example 5, 2-(2,4-Difluorophenyl)-N-[(3S)-9-fluoro-2-oxo-5-phenyl-1,3-dihydro-1,4-benzodiazepin-3-yl]pyrazolo[1,5-a]pyrimidine-3-carboxamide]
Cell cytotoxicity (CC50)
  CC50: > 25000 nM
In vitro; dog
  half-life at 1 μM: 5.93 h
In vitro; human
  half-life at 1 μM: > 2.33 h
In vitro; rat
  half-life at 1 μM: > 2.33 h
RSV A2
  EC50: 39 nM

## COc1ccc(-c2nn3cccnc3c2C(=O)N[C@H]2N=C(c3ccccc3)c3ccccc3NC2=O)c(F)c1 [Example 14, 2-(2-Fluoro-4-methoxyphenyl)-N-[(3S)-2-oxo-5-phenyl-1,3-dihydro-1,4-benzodiazepin-3-yl]pyrazolo[1,5-a]pyrimidine-3-carboxamide]
Cell cytotoxicity (CC50)
  CC50: > 25000 nM
In vitro; dog
  half-life at 1 μM: 1.33 h
In vitro; human
  half-life at 1 μM: > 2.33 h
In vitro; rat
  half-life at 1 μM: 2.72 h
RSV A2
  EC50: 41 nM

## COc1ccc2nc(-c3cncc(C)c3)c(C(=O)N[C@H]3N=C(c4ccccc4)c4cccc(F)c4NC3=O)n2n1 [Example 118, N-[(3S)-9-fluoro-2-oxo-5-phenyl-1,3-dihydro-1,4-benzodiazepin-3-yl]-6-methoxy-2-(5-methylpyridin-3-yl)imidazo[1,2-b]pyridazine-3-carboxamide]
Cell cytotoxicity (CC50)
  CC50: > 25000 nM
In vitro; dog
  half-life at 1 μM: 2.38 h
In vitro; human
  half-life at 1 μM: 1.98 h
In vitro; rat
  half-life at 1 μM: 0.808 h
RSV A2
  EC50: 59 nM

## O=C(N[C@H]1N=C(c2ccccc2)c2ccccc2NC1=O)c1c(-c2ccc(NC3CC3)nc2F)nn2cccnc12 [Example 48, 2-[6-(Cyclopropylamino)-2-fluoropyridin-3-yl]-N-[(3S)-2-oxo-5-phenyl-1,3-dihydro-1,4-benzodiazepin-3-yl]pyrazolo[1,5-a]pyrimidine-3-carboxamide]
Cell cytotoxicity (CC50)
  CC50: > 25000 nM
In vitro; dog
  half-life at 1 μM: 0.37 h
In vitro; human
  half-life at 1 μM: 14.8 h
In vitro; rat
  half-life at 1 μM: 3.62 h
RSV A2
  EC50: 13 nM

## O=C(N[C@H]1N=C(c2ccccc2)c2ccccc2NC1=O)c1c(-c2cccc(F)c2F)nn2cccnc12 [Example 43, 2-(2,3-Difluorophenyl)-N-[(3S)-2-oxo-5-phenyl-1,3-dihydro-1,4-benzodiazepin-3-yl]pyrazolo[1,5-a]pyrimidine-3-carboxamide]
Cell cytotoxicity (CC50)
  CC50: > 25000 nM
In vitro; dog
  half-life at 1 μM: 0.97 h
In vitro; human
  half-life at 1 μM: 3.35 h
In vitro; rat
  half-life at 1 μM: 41.5 h
RSV A2
  EC50: 60 nM

## O=C(N[C@H]1N=C(c2ccccc2)c2cccc(F)c2NC1=O)c1c(-c2ccccc2Cl)nn2cccnc12 [Example 10, 2-(2-Chlorophenyl)-N-[(3S)-9-fluoro-2-oxo-5-phenyl-1,3-dihydro-1,4-benzodiazepin-3-yl]pyrazolo[1,5-a]pyrimidine-3-carboxamide]
Cell cytotoxicity (CC50)
  CC50: 21100 nM
In vitro; dog
  half-life at 1 μM: 6.33 h
In vitro; human
  half-life at 1 μM: > 2.33 h
In vitro; rat
  half-life at 1 μM: 1.83 h
RSV A2
  EC50: 77 nM

## O=C(N[C@H]1N=C(c2ccccc2)c2cccc(F)c2NC1=O)c1c(-c2ccccc2)nc2cccnn12 [Example 107, N-[(3S)-9-fluoro-2-oxo-5-phenyl-1,3-dihydro-1,4-benzodiazepin-3-yl]-2-phenylimidazo[1,2-b]pyridazine-3-carboxamide]
Cell cytotoxicity (CC50)
  CC50: > 25000 nM
In vitro; dog
  half-life at 1 μM: 3.12 h
In vitro; human
  half-life at 1 μM: 4.97 h
In vitro; rat
  half-life at 1 μM: 1.46 h
RSV A2
  EC50: 37 nM
